Results taken from patent publication EP2036556A1, “Piperidone derivatives and medical uses thereof” (Heinrich-Pette-Institut, priority 2007, dated 2009).

Experiments:
[1] = system: T. brucei brucei laboratory strain TC 221; assay: Trypanosome assay (in vitro cytotoxicity, Alamar Blue); type: cell-based, Trypanosoma brucei brucei; details: for EC50: Trypanosoma brucei, strain TC 221, 10^4 trypanosomes per mL, incubated 72 h, reading at 48 h, Alamar Blue, read-out: ED50 [µM] T. brucei brucei
Method: Parasite culture: Trypomastigote forms of T. brucei brucei laboratory strain TC 221 were cultured in Baltz medium according to standard conditions.^36 In vitro cytotoxicity assays: The test compounds were dissolved in DMSO or 0.1 M NaOH. A defined number of parasites (10^4 trypanosomes per mL) were exposed in test chambers of 96-well plates to various concentrations of the test substances in a final volume of 200 µl. Positive (trypanosomes in culture medium) and negative controls (test substance without trypanosomes) were run with each plate. The plates were then incubated at 37°C in an atmosphere of 5 % CO2 for a total time period of 72 h. […] The effect of test substances was quantified in ED50 values by linear interpolation^18 of three different measurements. The activity of the test substances was measured by light absorption in an MR 700 Microplate Reader at a wavelength of 550 nm with a reference wave length of 630 nm, using the Alamar Blue®.

[2] = system: macrophage cell line J774.1; assay: Macrophage assay (Alamar Blue cytotoxicity); type: cell-based; details: Mus musculus; J774.1 macrophages; after 48h; read-out: ED50 [µM] Macrophage after 48h
Method: The macrophage cell line J774.1 was maintained in complete Click RPMI medium. For the experimental procedures cells were detached from the flasks with a rubber police, washed twice with PBS and suspended at 2 x 10^6 cells mL^-1 in complete Click RPMI medium. […] Following the addition of 20 µl of Alamar Blue, the plates were further incubated at similar conditions. The plates were then read 24 and 48 h later. Control experiments to examine the effect of cell density, incubation time and DMSO concentration were performed. Absorbance in the absence of compounds was set as 100 % of growth control.

HIV-1 = HIV-1 infection experiments in PM1 cells, strain not specified (BaL and/or NL4/3); type: cell-based; details: strain and concentration not given
Method: (§1) HIV-1 infection experiments using the T-cell tropic (X4) strain NL4/3, the macrophage-tropic (R5) strain BaL were routinely performed using PM1 cells (virus laboratory strains and cells were obtained from the NIH AIDS Research and Reference Reagent Program). Cells were cultured in RPMI medium containing 10 % fetal calf serum (Pansystems GmbH) and antibiotics (penicillin and streptomycin). For HIV-1 infection, 5 x 10^7 cells were resuspended in 500 µl culture medium without drugs and incubated at 37 °C for 3 h with 100 ng of HIV-1 viral stocks. After infection, cells were washed twice with PBS without Ca^2+ and Mg^2+ to avoid false positive p24 antigen determination. Cells were resuspended and identical aliquots (5 x 10^5 / mL) of infected cells were further cultured in 24-well plates (triplicates) in the presence of the drugs (dissolved in DMSO) at various concentrations, or in medium with DMSO as control for the calculation of the inhibition of virus replication. Culture medium was changed and cells were splitted twice a week post-infection. Viability of the cells (as measured by Alamar Blue) and p24 antigen levels (as measured by ELISA; Innogenetics N.V.) were determined at different time points.

[3] = system: R5-tropic HIV-1 strain BaL; assay: HIV-1 infection experiments in PM1 cells, p24 antigen ELISA, strain BaL; type: cell-based
Method: as §1

[4] = system: X4-tropic HIV-1 strain NL4/3; assay: HIV-1 infection experiments in PM1 cells, p24 antigen ELISA, strain NL4/3; type: cell-based; details: concentration of 6 µM, compared to DMSO control cultures
Method: as §1

MT-2 cells = type: cell-based; details: human, 10 days, 10 µM
Method: First, the subtoxic concentration of the inhibitor was determined by vitality assays. MT-2 cells were cultured for 14 days with 10, 5, 2.5 and 1.5 µM of the inhibitor as well as DMSO as a solvent control. In regular intervals, samples for determination of the vitality of the cells were taken. Vitality was tested with the alamarBlue®-Assays.

HTLV-I = assay: Inhibition of HTLV-I virus production in MT-2 cells (real-time PCR of gag RNA in supernatant); type: cell-based; details: Primate T-lymphotropic virus 1, MT2, 240 h, day 10 and 14, read-out: inhibition of virus production in relation to the solvent control
Source text: For the investigation wether the inhibition of DOHH by the compositions of the invention can influence replication of HTLV-I, the lymphoma cell line MT-2, which is latently infected by HTLV-I was used as a model system (Harada et al., 1985, Infection of HTLV-III/LAV in HTLV-I-carrying cells MT-2 and MT-4 and application in a plaque assay. Science 229, 563-566). MT-2 cells continually produce a high amount of virus particles which are secreted into the cell culture supernatant, and they grow quickly. The experimental approach is based on the comparison of the virus load of cells treated with the potential inhibitor and an untreated control. As the inhibitor was dissolved in DMSO, the same amount of this solvent was added to the control cells.
For investigating the influence of inhibition of DOOH on the replication of HTLV-I, as before, MT-2 cells were cultivated with the determined subtoxic concentrations of compound 11 as well as a solvent control. In regular intervals, cell vitality was determined and the RNA of the virus particles from the supernatant was isolated. After reverse transcription with a primer specific for the gag region of HTLV-I RNA, the cDNA was quantified by real-time PCR. For detection of the amplified DNA, a gag-specific probe was used. A plasmid comprising the HTLV-I provirus served as a standard. […]

plasmodia = details: after 48 h; previous study; cited from earlier work

SMILES | EC50 [1] | EC50 [2] | inhibition of virus replication (HIV-1) | activity against the plasmodia (plasmodia) | also measured
CCOC(=O)C1=C(O)C(C(=O)OCC)[C@H](c2ccc([N+](=O)[O-])cc2)N(Cc2ccccc2)[C@H]1c1ccc([N+](=O)[O-])cc1 (stereo partly drawn) [Compound 13, Diethyl (2R,6S)-1-benzyl-4-hydroxy-2,6-bis(4-nitrophenyl)-1,2,3,6-tetrahydropyridine-3,5-dicarboxylate] | 2.72 ± 0.51 µM | > 100 µM | 20% | – | –
C=CCN1[C@@H](c2ccc([N+](=O)[O-])cc2)C(C(=O)OCC)=C(O)C(C(=O)OCC)[C@@H]1c1ccc([N+](=O)[O-])cc1 (stereo partly drawn) [Compound 11, Diethyl (2R,6S)-1-allyl-4-hydroxy-2,6-bis(4-nitrophenyl)-1,2,3,6-tetrahydropyridine-3,5-dicarboxylate] | 3.06 ± 0.55 µM | > 100 µM | – | – | inhibition of replication of HIV-1 BaL ([3]; PM1 cells, concentration of 5 µM, compared to DMSO control cultures): completely inhibit; inhibition of replication of HIV-1 NL4/3 [4]: completely inhibit; death of the cells (MT-2 cells): 90%; inhibition at 2.5 µM (HTLV-I; 2.5 µM): > 90%; inhibition at 5 µM (HTLV-I; 5 µM): > 80%
COC(=O)C1=C(O)C[C@@H](c2ccccn2)N(Cc2ccc(Cl)cc2)[C@H]1c1ccccn1 [Compound 21, Methyl (2'R,6'S)-1'-(4-chlorobenzyl)-4'-hydroxy-1',2',5',6'-tetrahydro-2,2';6',2''-terpyridine-3'-carboxylate] | 0.32 ± 0.09 µM | 32.8 ± 0.49 µM | – | high activity | –
Cl.Clc1cccc(Cl)c1CON=CC1CCN(CCCc2ccccc2)CC1 [Compound 53, 4-[(2,6-Dichloro-benzyloxyimino)-methyl]-1-(3-phenyl-propyl)-piperidinium hydrochloride] | 3.86 ± 1.95 µM | 28.4 ± 5.92 µM | – | – | activity against trypanosomes (in words) ([1]; statement of the discussion): active against trypanosomes; inhibition at 10 µM ([3]; Human immunodeficiency virus 1, HIV-1 BaL infected PM1 cells, concentration of 10 µM, read-out: virus replication inhibited): 85%
C=CCN1[C@@H](c2ccccn2)C(C(=O)OC)=C(O)C[C@H]1c1ccccn1 [Compound 24, Methyl (2'R,6'S)-1'-allyl-4'-hydroxy-1',2',5',6'-tetrahydro-2,2';6',2''-terpyridine-3'-carboxylate] | 1.08 ± 0.48 µM | 35 µM | – | high activity | –
COC(=O)C1=C(O)C(C(=O)OC)[C@H](c2ccc([N+](=O)[O-])cc2)N(Cc2ccccc2)[C@H]1c1ccc([N+](=O)[O-])cc1 (stereo partly drawn) [Compound 12, Dimethyl (2R,6S)-1-benzyl-4-hydroxy-2,6-bis(4-nitrophenyl)-1,2,3,6-tetrahydropyridine-3,5-dicarboxylate] | 3.01 ± 0.27 µM | 18.4 ± 2.93 µM | 20% | – | –
